Results published in the NIST ThermoML archive (doi:10.1016/j.jct.2012.09.004).

Tests used:
[1] = wn = mass fraction of the nth substance listed; settings: Pendant drop shape
[2] = refractive index (Na D-line) (dimensionless); wn = mass fraction of the nth substance listed; settings: 101 kPa, Liquid, Standard Abbe refractometry
[3] = Pendant drop shape
[4] = refractive index (Na D-line) (dimensionless); settings: 101.33 kPa, Liquid, Standard Abbe refractometry

CCCCCCCCCCCCCC[P+](CCCCCC)(CCCCCC)CCCCCC.N#C[N-]C#N [tetradecyl(trihexyl)phosphonium dicyanamide] + O
w2 = 0.0309
Settings	refractive index	surface tension liquid-gas [mN/m]
[1], 298.2 K	–	32.56
[1], 307.8 K	–	31.8
[1], 318 K	–	31.2
[1], 328 K	–	30.5
[1], 338.8 K	–	29.9
[1], 342.8 K	–	29.5
[2], 298.15 K	1.47866	–
[2], 303.15 K	1.47702	–
[2], 308.15 K	1.47535	–
[2], 313.15 K	1.47367	–
[2], 318.15 K	1.47207	–
[2], 323.15 K	1.47049	–
[2], 328.15 K	1.46893	–
[2], 333.15 K	1.46739	–
[2], 338.15 K	1.46586	–
[2], 343.15 K	1.46442	–
[2], 348.15 K	1.46302	–
[2], 353.15 K	1.46163	–

CCCCCCCCCCCCCC[P+](CCCCCC)(CCCCCC)CCCCCC.CS(=O)(=O)[O-] [trihexyltetradecylphosphonium methanesulfonate]
Settings	refractive index	surface tension liquid-gas [mN/m]
[3], 298.3 K	–	31
[3], 308 K	–	30.3
[3], 318.5 K	–	29.6
[3], 328.8 K	–	28.8
[3], 338.7 K	–	28.2
[3], 343.5 K	–	27.9
[4], 283.15 K	1.47813	–
[4], 288.15 K	1.47668	–
[4], 293.15 K	1.47507	–
[4], 298.15 K	1.47346	–
[4], 303.15 K	1.47186	–
[4], 308.15 K	1.47025	–
[4], 313.15 K	1.46865	–
[4], 318.15 K	1.46702	–
[4], 323.15 K	1.4654	–
[4], 328.15 K	1.4638	–
[4], 333.15 K	1.46217	–
[4], 338.15 K	1.46053	–
[4], 343.15 K	1.45895	–
[4], 348.15 K	1.45727	–
[4], 353.15 K	1.45572	–

CCCCCCCCCCCCCC[P+](CCCCCC)(CCCCCC)CCCCCC.[Cl-] [trihexyl(tetradecyl)phosphonium chloride] + O
w2 = 0.1334
Settings	refractive index	surface tension liquid-gas [mN/m]
[1], 298.6 K	–	30.81
[1], 308 K	–	30.01
[1], 318.3 K	–	29.2
[1], 328.7 K	–	28.45
[1], 342.7 K	–	27.43
[2], 298.15 K	1.46283	–
[2], 303.15 K	1.46133	–
[2], 308.15 K	1.45953	–
[2], 313.15 K	1.45768	–
[2], 318.15 K	1.45595	–
[2], 323.15 K	1.45425	–
[2], 328.15 K	1.45266	–
[2], 333.15 K	1.45124	–
[2], 338.15 K	1.44998	–
[2], 343.15 K	1.44892	–
[2], 348.15 K	1.44798	–
[2], 353.15 K	1.4471	–

CCCCCCCCCC(=O)[O-].CCCCCCCCCCCCCC[P+](CCCCCC)(CCCCCC)CCCCCC [trihexyltetradecylphosphonium decanoate] + O
w2 = 0.1526
Settings	refractive index	surface tension liquid-gas [mN/m]
[1], 298.4 K	–	29.1
[1], 307.7 K	–	28.5
[1], 318 K	–	27.7
[1], 328.9 K	–	26.8
[1], 339.2 K	–	26
[1], 344.3 K	–	25.6
[2], 298.15 K	1.45342	–
[2], 303.15 K	1.45194	–
[2], 308.15 K	1.45041	–
[2], 313.15 K	1.44877	–
[2], 318.15 K	1.44699	–
[2], 323.15 K	1.44498	–
[2], 328.15 K	1.4431	–
[2], 333.15 K	1.44129	–
[2], 338.15 K	1.43948	–
[2], 343.15 K	1.43763	–
[2], 348.15 K	1.43579	–
[2], 353.15 K	1.43397	–
